# ChEMBL document CHEMBL4390709, “Design, synthesis and biological evaluation of benzimidazole derivatives as novel human Pin1 inhibitors” (Bioorg Med Chem Lett, 2019)
# Legend:
# [1] = target: Peptidyl-prolyl cis-trans isomerase NIMA-interacting 1 (Homo sapiens, UniProt Q13526); test: Inhibition of recombinant human Pin1 (Met1 to Glu163 residues) expressed in Escherichia coli using Suc-Ala-Glu-cis-Pro-Phe-4-nitroanilide as substrate preincubated for 30 mins followed by substrate addition and measured for 90 secs by protease-coupled assay
# [2] = test system: PC-3; test: Cell cycle arrest in human PC3 cells assessed as increase in accumulation at G0/G1-phase measured after 24 hrs by propidium iodide staining based flow cytometry; format: functional
# [3] = test system: PC-3; test: Cell cycle arrest in human PC3 cells assessed as accumulation at subG1-phase at 2.5 uM measured after 24 hrs by propidium iodide staining based flow cytometry (reference value: 0.65%); format: functional
# [4] = test system: PC-3; test: Cell cycle arrest in human PC3 cells assessed as accumulation at G2/M-phase at 10 uM measured after 24 hrs by propidium iodide staining based flow cytometry (reference value: 28.31%); format: functional
# [5] = test system: PC-3; test: Cell cycle arrest in human PC3 cells assessed as accumulation at G2/M-phase at 5 uM measured after 24 hrs by propidium iodide staining based flow cytometry (reference value: 28.31%); format: functional
# [6] = test system: PC-3; test: Cell cycle arrest in human PC3 cells assessed as accumulation at G0/G1-phase at 10 uM measured after 24 hrs by propidium iodide staining based flow cytometry (reference value: 54.26%); format: functional
# [7] = test system: PC-3; test: Cell cycle arrest in human PC3 cells assessed as accumulation at G0/G1-phase at 2.5 uM measured after 24 hrs by propidium iodide staining based flow cytometry (reference value: 54.26%); format: functional
# [8] = test system: PC-3; test: Cell cycle arrest in human PC3 cells assessed as accumulation at subG1-phase at 10 uM measured after 24 hrs by propidium iodide staining based flow cytometry (reference value: 0.65%); format: functional
# [9] = test system: PC-3; test: Antiproliferative activity against human PC3 cells measured after 96 hrs by MTT assay; format: functional; conditions: PC-3, 96 h
# [10] = test system: PC-3; test: Cell cycle arrest in human PC3 cells assessed as accumulation at G0/G1-phase at 5 uM measured after 24 hrs by propidium iodide staining based flow cytometry (reference value: 54.26%); format: functional
# [11] = test system: PC-3; test: Cell cycle arrest in human PC3 cells assessed as accumulation at subG1-phase at 5 uM measured after 24 hrs by propidium iodide staining based flow cytometry (reference value: 0.65%); format: functional
# [12] = test system: PC-3; test: Cell cycle arrest in human PC3 cells assessed as accumulation at G2/M-phase at 2.5 uM measured after 24 hrs by propidium iodide staining based flow cytometry (reference value: 28.31%); format: functional
# Peptidyl-prolyl cis-trans isomerase NIMA-interacting 1, sequence (Q13526 whole entry): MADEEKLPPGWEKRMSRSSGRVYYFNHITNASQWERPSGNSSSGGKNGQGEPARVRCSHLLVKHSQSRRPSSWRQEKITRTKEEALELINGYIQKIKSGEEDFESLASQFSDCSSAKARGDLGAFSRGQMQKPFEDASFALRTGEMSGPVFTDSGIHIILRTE
SMILES,IC50 [1] [µM],further results
CC(C)(C)c1ccc(OCCCn2c(-c3ccc(C(=O)O)cc3)nc3ccccc32)cc1,1.89,–
O=C(NS(=O)(=O)c1ccccc1)c1ccc(-c2nc3ccccc3n2CCCOc2cccc3ccccc23)cc1,1,Activity [2]: Dose-dependent effect; Activity [3]: 0.52%; Activity [4]: 27.2%; Activity [5]: 27.86%; Activity [6]: 64.24%; Activity [7]: 58.33%; Activity [8]: 0.37%; GI50 [9]: 9 µM; Activity [10]: 62.46%; Activity [11]: 0.49%; Activity [12]: 29.01%
CS(=O)(=O)NC(=O)c1ccc(-c2nc3ccccc3n2CCCOc2cccc3ccccc23)cc1,7.83,–
Cc1cc(OCCCn2c(-c3ccc(C(=O)O)cc3)nc3ccccc32)cc(C)c1Cl,0.47,–
CC(C)(C)c1ccc(OC(=O)CCn2c(-c3ccc(C(=O)O)cc3)nc3ccccc32)cc1,13.9,–
O=C(O)c1ccc(-c2nc3ccccc3n2CCC(=O)N(c2ccccc2)c2ccc3ccccc3c2)cc1,1.53,–
O=C(O)c1ccc(-c2nc3ccccc3n2CCCOc2cccc3ccccc23)cc1,0.33,–
O=C(NS(=O)(=O)C(F)(F)F)c1ccc(-c2nc3ccccc3n2CCCOc2cccc3ccccc23)cc1,2.26,–
O=C(O)c1ccc(-c2nc3ccccc3n2CCC(=O)N(Cc2ccccc2)Cc2ccccc2)cc1,5.4,–
O=C(CCn1c(-c2ccc(C(=O)O)cc2)nc2ccccc21)Oc1ccc(Oc2ccccc2)cc1,1.02,–
O=C(O)c1ccc(-c2nc3ccccc3n2CCCOc2ccc(Oc3ccccc3)cc2)cc1,2.2,–

# Continued, in another order:
IC50 [1] [µM],SMILES,further results
13.6,O=C(CCn1c(-c2ccc(C(=O)O)cc2)nc2ccccc21)Nc1cccc([N+](=O)[O-])c1,–
9.81,Cc1ccccc1NC(=O)CCn1c(CCC(=O)O)nc2ccccc21,–
7.27,Cc1ccccc1NC(=O)CCn1c(-c2ccc(C(=O)O)cc2)nc2ccccc21,–
2.89,O=C(CCn1c(-c2ccc(C(=O)O)cc2)nc2ccccc21)Nc1cc(Cl)cc(Cl)c1,–
18.7,COc1cccc(NC(=O)CCn2c(-c3ccc(C(=O)O)cc3)nc3ccccc32)c1,–
11.3,O=C(CCn1c(-c2ccc(C(=O)O)cc2)nc2ccccc21)Nc1cccc(C(F)(F)F)c1,–
1.1,Cc1cccc(NC(=O)CCn2c(-c3ccc(C(=O)O)cc3)nc3ccccc32)c1,–
19.7,O=C(O)CCc1nc2ccccc2n1CCC(=O)Nc1ccccc1,–
0.72,Cc1cc(OC(=O)CCn2c(-c3ccc(C(=O)O)cc3)nc3ccccc32)cc(C)c1Cl,–
1.87,O=C(CCn1c(-c2ccc(C(=O)O)cc2)nc2ccccc21)Oc1cccc2ccccc12,–
7.56,Cc1cccc(NC(=O)CCn2c(CCC(=O)O)nc3ccccc32)c1,–
3.57,COc1cc(NC(=O)CCn2c(-c3ccc(C(=O)O)cc3)nc3ccccc32)cc(OC)c1,–
